Where a name gives a salt, the structure may show the parent alone.
Molecular target: T1, guinea-pig B2 receptor (Cavia porcellus, UniProt O70526)
T1 construct: Ileum segments are isolated from male guinea-pigs of the Dunkin-Hartley strain; tissue Iffa Credo, l'Arbresle, France (animals); host or cells: ileum membranes of male Dunkin-Hartley guinea-pigs
T1 sequence (O70526 1-372): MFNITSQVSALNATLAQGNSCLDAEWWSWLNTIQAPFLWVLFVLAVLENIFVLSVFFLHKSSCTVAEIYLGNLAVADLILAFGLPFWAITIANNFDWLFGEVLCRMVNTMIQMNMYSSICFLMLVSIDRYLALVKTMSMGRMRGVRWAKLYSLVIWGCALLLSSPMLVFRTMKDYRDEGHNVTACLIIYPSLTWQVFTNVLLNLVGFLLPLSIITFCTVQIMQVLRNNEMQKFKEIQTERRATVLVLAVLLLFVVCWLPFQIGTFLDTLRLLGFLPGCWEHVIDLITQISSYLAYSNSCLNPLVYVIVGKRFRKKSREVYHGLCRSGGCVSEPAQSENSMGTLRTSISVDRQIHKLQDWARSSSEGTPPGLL
Assay: [3H]-bradykinin binding to guinea-pig ileum membranes
Conditions: test compound 10^-6 M; [3H]-bradykinin 120 pM; 50 μg membrane protein; 90 min at 20° C.; read-out: Activity % (percentage inhibition of the binding of [3H]-bradykinin)
Procedure: We used the following pharmacological test: Ileum segments are isolated from male guinea-pigs of the Dunkin-Hartley strain (Iffa Credo, l'Arbresle, France) and ground in the following TES buffer: TES 25 mM, 1,10-phenanthroline 1 mM (pH 6.8), bacitracin 140 μg/ml, BSA 1 g/l. The membranes are then isolated by centrifugation (18,000 rpm; 20 min; 4° C.). The binding studies are carried out in the TES buffer using [^3 H]-bradykinin (120 pM) and 50 μg of membrane protein per test (final volume 500 μl) with an equilibrium time of 90 min at 20° C.

| inhibition at 1 µM [%] | Compound |
| --- | --- |
| 99.5 | Cc1ccc2cccc(OCc3c(Cl)ccc(S(=O)(=O)N(C)Cc4ccc(N)cc4)c3Cl)c2n1 [Example 8, 2,4-Dichloro-N-methyl-N-[(4-aminophenyl)methyl]-3-[(2-methylquinolin-8-yl)oxymethyl]benzenesulfonamide dihydrochloride] |
| 92.8 | Cc1ccc2cccc(OCc3c(Cl)ccc(S(=O)(=O)N(CCCCN)C(C)(C)C)c3Cl)c2n1 [Example 23, N-(4-Aminobutyl)-N-(1,1-dimethylethyl)-2,4-dichloro-3-[(2-methylquinolin-8-yl)oxymethyl]benzenesulfonamide] |
| 97.9 | Cc1ccc2cccc(OCc3c(Cl)ccc(S(=O)(=O)N(C)CCc4ccccc4)c3Cl)c2n1 [Example 15, 2,4Dichloro-N-methyl-N-(2-phenylethyl)-3-[(2-methylquinolin-8-yl)oxymethyl]benzenesulfonamide] |
| 95.1 | Cc1ccc2cccc(OCc3c(Cl)ccc(S(=O)(=O)N(CCCCCCCO)Cc4ccccc4)c3Cl)c2n1 [Example 25, 2,4-Dichloro-N-(phenylmethyl)-N-(7-hydroxyheptyl)-3-[(2-methylquinolin-8-yl]oxymethyl]benzenesulfonamide] |
| 95.7 | Cc1ccc2cccc(OCc3c(Cl)ccc(S(=O)(=O)N(C)CCCCCCCCO)c3Cl)c2n1 [Example 20, 2,4-Dichloro-N-methyl-N-(8-hydroxyoctyl)-3-[(2-methylquinolin-8-yl)oxymethyl]benzenesulfonamide] |
| 96.9 | Cc1ccc2cccc(OCc3c(Cl)ccc(S(=O)(=O)N(C)Cc4cccc(C(=O)N(C)C)c4)c3Cl)c2n1 [Example 12, 2,4-Dichloro-N-methyl-N-[[3-[(dimethylamino)carbonyl]phenyl]methyl]-3-[(2-methylquinolin-8-yl)oxymethyl]benzenesulfonamide] |
| 100 | Cc1ccc2cccc(OCc3c(Cl)ccc(S(=O)(=O)N(C)Cc4cccc(C(=O)NCCN(C)C)c4)c3Cl)c2n1 [Example 14, 2,4-Dichloro-N-methyl-N-[[3-[[2-(dimethylamino)ethyl]aminocarbonyl]-phenyl]-methyl]-3-[(2-methylquinolin-8-yl)oxymethyl]benzenesulfonamide] |
| 99.3 | Cc1ccc2cccc(OCc3c(Cl)ccc(S(=O)(=O)N(C)Cc4cccc(C(=O)NCCCO)c4)c3Cl)c2n1 [Example 13, 2,4-Dichloro-N-methyl-N-[[3-[(3-hydroxypropyl)aminocarbonyl]phenyl]-methyl]-3-[(2-methylquinolin-8-yl)oxymethyl]benzenesulfonamide] |
| 99.8 | Cc1ccc2cccc(OCc3c(Cl)ccc(S(=O)(=O)N(C)Cc4cccc(C(N)=O)c4)c3Cl)c2n1 [Example 10, 2,4-Dichloro-N-methyl-N-[[3-(aminocarbonyl)phenyl]methyl]-3[(2-methylquinolin-8-yl)oxymethyl]benzenesulfonamide] |
| 99.5 | Cc1ccc2cccc(OCc3c(Cl)ccc(S(=O)(=O)N(C)Cc4ccc(O)cc4)c3Cl)c2n1 [Example 9, 2,4-Dichloro-N-methyl-N-[(4-hydroxyphenyl)methyl]-3-[(2-methylquinolin-8-yl)oxymethyl]benzenesulfonamide] |
| 100 | Cc1ccc2cccc(OCc3c(Cl)ccc(S(=O)(=O)N(C)CCCCCCCN)c3Cl)c2n1 [Example 16, 2,4-Dichloro-N-methyl-N-(7-aminoheptyl)-3-[(2-methylquinolin-8-yl)oxymethyl]benzenesulfonamide bis(trifluoroacetate)] |
| 100 | CNC(=O)c1cccc(CN(C)S(=O)(=O)c2ccc(Cl)c(COc3cccc4ccc(C)nc34)c2Cl)c1 [Example 11, 2,4-Dichloro-N-methyl-N-[[3-(methylaminocarbonyl)phenyl]methyl]-3-[(2-methylquinolin-8-yl)oxymethyl]benzenesulfonamide] |
| 94.3 | Cc1ccc2cccc(OCc3c(Cl)ccc(S(=O)(=O)N(C)CCCCCCCCCCCCO)c3Cl)c2n1 [Example 21, 2,4-Dichloro-N-methyl-N-(12-hydroxydodecyl)-3-[(2-methylquinolin-8-yl)oxymethyl]benzenesulfonamide] |
| 90.5 | CC(=O)NCCCCN(C(C)(C)C)S(=O)(=O)c1ccc(Cl)c(COc2cccc3ccc(C)nc23)c1Cl [Example 24] |
| 98 | CNC(=O)CCCCCCCN(Cc1ccccc1)S(=O)(=O)c1ccc(Cl)c(COc2cccc3ccc(C)nc23)c1Cl [Example 28, 2,4-Dichloro-N-(phenylmethyl)-N-[8-(methylamino)-8-oxooctyl]-3-[(2-methylquinolin-8-yl)oxymethyl]benzenesulfonamide] |
| 99 | CNC(=O)CCCCCN(C)S(=O)(=O)c1ccc(Cl)c(COc2cccc3ccc(C)nc23)c1Cl [Example 19, 2,4-Dichloro-N-methyl-N-[6-(methylamino)-6-oxohexyl]-3-[(2-methylquinolin-8-yl)oxymethyl]benzenesulfonamide] |
| 97.6 | Cc1ccc2cccc(OCc3c(Cl)ccc(S(=O)(=O)N(C)Cc4c[nH]c5ccccc45)c3Cl)c2n1 [Example 7, 2,4-Dichloro-N-methyl-N-[(indol-3-yl)methyl]-3-[(2-methylquinolin-8yl)oxymethyl]benzenesulfonamide] |

From patent publication US5968951A, “Benzenesulfonamide derivatives as bradykinin antagonists” (Fournier Industrie et Sante, priority 1995, dated 1999)
